Measured values as given in patent US10770169B2, “Method of providing a treatment to a subject based on a dynamic pathway map” (THE REGENTS OF THE UNIVERSITY OF CALIFORNIA, priority 2010, dated 2020).

Test system: panel of 55 breast cancer cell lines
Experiment: Cell growth inhibition assay (Cell Titer Glo, 72 h, 9 doses; GI50, TGI, LC50)
Assay type: cell-based, human
[1] = 600MPE cell line, censored GI50 values, value is the negative log10 of mol/L
[2] = AU565 cell line, censored GI50 values, value is the negative log10 of mol/L
[3] = BT483 cell line, censored GI50 values, value is the negative log10 of mol/L
[4] = HCC1187 cell line, censored GI50 values, value is the negative log10 of mol/L
[5] = HCC1428 cell line, censored GI50 values, value is the negative log10 of mol/L
[6] = HCC1806 cell line, censored GI50 values, value is the negative log10 of mol/L
[7] = HCC1937 cell line, censored GI50 values, value is the negative log10 of mol/L
[8] = HCC1954 cell line, censored GI50 values, value is the negative log10 of mol/L
[9] = HCC2185 cell line, censored GI50 values, value is the negative log10 of mol/L
[10] = MCF7 cell line, censored GI50 values, value is the negative log10 of mol/L
[11] = MDAMB134VI cell line, censored GI50 values, value is the negative log10 of mol/L
[12] = MDAMB175VII cell line, censored GI50 values, value is the negative log10 of mol/L
[13] = MDAMB468 cell line, censored GI50 values, value is the negative log10 of mol/L
[14] = SKBR3 cell line, censored GI50 values, value is the negative log10 of mol/L
[15] = SUM149PT cell line, censored GI50 values, value is the negative log10 of mol/L
[16] = SUM185PE cell line, censored GI50 values, value is the negative log10 of mol/L
[17] = SUM1315MO2 cell line, censored GI50 values, value is the negative log10 of mol/L
[18] = cell line 600MPE, value is the negative log10 of mol/L
[19] = cell line AU565, value is the negative log10 of mol/L

## C[C@]12O[C@H](C[C@]1(O)CO)n1c3ccccc3c3c4c(c5c6ccccc6n2c5c31)CNC4=O [Lestaurtinib]
Homo sapiens, 600MPE cell line, censored GI50 values
  GI50: 1700 nM
Homo sapiens, AU565, AU565 cell line, censored GI50 values
  GI50: 851 nM
Homo sapiens, AU565, cell line AU565
  GI50: 851 nM
Homo sapiens, BT-20, BT20 cell line, censored GI50 values
  GI50: 3240 nM
Homo sapiens, BT-20, cell line BT20
  GI50: 3240 nM
Homo sapiens, BT-474, BT474 cell line, censored GI50 values
  GI50: 245 nM
Homo sapiens, BT-474, cell line BT474
  GI50: 245 nM
Homo sapiens, BT-483, BT483 cell line, censored GI50 values
  GI50: 741 nM
Homo sapiens, BT-483, cell line BT483
  GI50: 741 nM
Homo sapiens, CAMA-1, CAMA1 cell line, censored GI50 values
  GI50: 2240 nM
Homo sapiens, CAMA-1, cell line CAMA1
  GI50: 2240 nM
Homo sapiens, HCC38, cell line HCC38
  GI50: 61.7 nM
Homo sapiens, HCC70, cell line HCC70
  GI50: 182 nM
Homo sapiens, HCC1143, HCC1143 cell line, censored GI50 values
  GI50: 331 nM
Homo sapiens, HCC1143, cell line HCC1143
  GI50: 331 nM
Homo sapiens, HCC1187, HCC1187 cell line, censored GI50 values
  GI50: 832 nM
Homo sapiens, HCC1187, cell line HCC1187
  GI50: 832 nM
Homo sapiens, HCC1419, HCC1419 cell line, censored GI50 values
  GI50: 1150 nM
Homo sapiens, HCC1419, cell line HCC1419
  GI50: 1150 nM
Homo sapiens, HCC1428, HCC1428 cell line, censored GI50 values
  GI50: 537 nM
Homo sapiens, HCC1428, cell line HCC1428
  GI50: 537 nM
Homo sapiens, HCC1500, HCC1500 cell line, censored GI50 values
  GI50: 158 nM
Homo sapiens, HCC1500, cell line HCC1500
  GI50: 158 nM
Homo sapiens, HCC1806, HCC1806 cell line, censored GI50 values
  GI50: 162 nM
Homo sapiens, HCC1806, cell line HCC1806
  GI50: 162 nM
Homo sapiens, HCC1937, HCC1937 cell line, censored GI50 values
  GI50: 617 nM
Homo sapiens, HCC1937, cell line HCC1937
  GI50: 617 nM
Homo sapiens, HCC1954, HCC1954 cell line, censored GI50 values
  GI50: 4900 nM
Homo sapiens, HCC1954, cell line HCC1954
  GI50: 4900 nM
Homo sapiens, MCF7, cell line MCF7
  GI50: 1410 nM
Homo sapiens, MDA-MB-361, cell line MDAMB361
  GI50: 525 nM
Homo sapiens, MDA-MB-436, cell line MDAMB436
  GI50: 1380 nM
Homo sapiens, MDA-MB-453, cell line MDAMB453
  GI50: 661 nM
Homo sapiens, MDA-MB-468, cell line MDAMB468
  GI50: 407 nM
Homo sapiens, SK-BR-3, cell line SKBR3
  GI50: 1020 nM
Homo sapiens, SUM52PE, cell line SUM52PE
  GI50: 138 nM
Homo sapiens, SUM149PT, cell line SUM149PT
  GI50: 91.2 nM
Homo sapiens, SUM185PE, cell line SUM185PE
  GI50: 63.1 nM
Homo sapiens, SUM225CWN, cell line SUM225CWN
  GI50: 1000 nM
Homo sapiens, SUM-159-PT, cell line SUM159PT
  GI50: 288 nM
Homo sapiens, T47D, cell line T47D
  GI50: 5620 nM
Homo sapiens, UACC-812, cell line UACC812
  GI50: 1050 nM
Homo sapiens, ZR-75-1, cell line ZR751
  GI50: 1780 nM
Homo sapiens, ZR-75B, cell line ZR75B
  GI50: 457 nM
Homo sapiens, cell line 600MPE
  GI50: 1700 nM
Homo sapiens, cell line HCC2185
  GI50: 3240 nM
Homo sapiens, cell line HCC3153
  GI50: 7760 nM
Homo sapiens, cell line MDAMB134V
  GI50: 363 nM
Homo sapiens, cell line MDAMB175V
  GI50: 813 nM
Homo sapiens, cell line SUM1315MO
  GI50: 37.2 nM

## C[C@@H](Oc1cc(-n2cnc3ccc(CN4CCN(C)CC4)cc32)sc1C(N)=O)c1ccccc1C(F)(F)F [GSK461364A]
[1]
  GI50: 5.16
[2]
  GI50: 8.35
BT474 cell line, censored GI50 values, value is the negative log10 of mol/L
  GI50: 5.07
[3]
  GI50: 5.35
CAMA1 cell line, censored GI50 values, value is the negative log10 of mol/L
  GI50: 5.17
HCC38 cell line, censored GI50 values, value is the negative log10 of mol/L
  GI50: 7.42
HCC70 cell line, censored GI50 values, value is the negative log10 of mol/L
  GI50: 7.01
HCC1143 cell line, censored GI50 values, value is the negative log10 of mol/L
  GI50: 7.13
[4]
  GI50: 7.48
HCC1395 cell line, censored GI50 values, value is the negative log10 of mol/L
  GI50: 8.31
HCC1419 cell line, censored GI50 values, value is the negative log10 of mol/L
  GI50: 5.12
[5]
  GI50: 5.26
HCC1500 cell line, censored GI50 values, value is the negative log10 of mol/L
  GI50: 7.89
[6]
  GI50: 7.95
[7]
  GI50: 7.51
[8]
  GI50: 8.16
[9]
  GI50: 8.26
HCC3153 cell line, censored GI50 values, value is the negative log10 of mol/L
  GI50: 7.50
[10]
  GI50: 7.82
[11]
  GI50: 7.83
MDAMB157 cell line, censored GI50 values, value is the negative log10 of mol/L
  GI50: 8.98
[12]
  GI50: 5.21
MDAMB231 cell line, censored GI50 values, value is the negative log10 of mol/L
  GI50: 7.68
MDAMB361 cell line, censored GI50 values, value is the negative log10 of mol/L
  GI50: 8.72
MDAMB415 cell line, censored GI50 values, value is the negative log10 of mol/L
  GI50: 7.08
MDAMB436 cell line, censored GI50 values, value is the negative log10 of mol/L
  GI50: 7.90
MDAMB453 cell line, censored GI50 values, value is the negative log10 of mol/L
  GI50: 7.97
[13]
  GI50: 8.41
[14]
  GI50: 7.78
[15]
  GI50: 7.72
SUM159PT cell line, censored GI50 values, value is the negative log10 of mol/L
  GI50: 7.49
[16]
  GI50: 5.66
[17]
  GI50: 7.51
[18]
  GI50: 5.16
[19]
  GI50: 8.35

## CC(C)[C@H](CO)Nc1nc(Nc2cccc(Cl)c2)c2ncn(C(C)C)c2n1 [Purvalanol A]
[1]
  GI50: 4.52
[2]
  GI50: 5.01
BT20 cell line, censored GI50 values, value is the negative log10 of mol/L
  GI50: 4.56
[3]
  GI50: 4.40
HCC202 cell line, censored GI50 values, value is the negative log10 of mol/L
  GI50: 3.99
[4]
  GI50: 4.74
[5]
  GI50: 4.44
[6]
  GI50: 4.00
[7]
  GI50: 4.97
[8]
  GI50: 4.43
[9]
  GI50: 4.57
[10]
  GI50: 4.80
[11]
  GI50: 4.26
[12]
  GI50: 4.46
[13]
  GI50: 4.12
[14]
  GI50: 4.60
SUM52PE cell line, censored GI50 values, value is the negative log10 of mol/L
  GI50: 4.79
[15]
  GI50: 4.88
[16]
  GI50: 4.69
SUM225CWN cell line, censored GI50 values, value is the negative log10 of mol/L
  GI50: 4.28
[17]
  GI50: 5.09
ZR751 cell line, censored GI50 values, value is the negative log10 of mol/L
  GI50: 4.01
[18]
  GI50: 4.52
[19]
  GI50: 5.01
Cell line BT20, value is the negative log10 of mol/L
  GI50: 4.56
Cell line BT474, value is the negative log10 of mol/L
  GI50: 3.78
Cell line BT483, value is the negative log10 of mol/L
  GI50: 4.40
Cell line BT549, value is the negative log10 of mol/L
  GI50: 3.78
Cell line CAMA1, value is the negative log10 of mol/L
  GI50: 3.86
Cell line HCC70, value is the negative log10 of mol/L
  GI50: 3.78
Cell line HCC202, value is the negative log10 of mol/L
  GI50: 3.99
Cell line HCC1143, value is the negative log10 of mol/L
  GI50: 3.78
Cell line HCC1187, value is the negative log10 of mol/L
  GI50: 4.74
Cell line HCC1395, value is the negative log10 of mol/L
  GI50: 3.78
Cell line HCC1419, value is the negative log10 of mol/L
  GI50: 3.78
Cell line HCC1428, value is the negative log10 of mol/L
  GI50: 4.44
Cell line HCC1500, value is the negative log10 of mol/L
  GI50: 3.95
Cell line HCC1806, value is the negative log10 of mol/L
  GI50: 4.00
Cell line HCC1937, value is the negative log10 of mol/L
  GI50: 4.97
Cell line HCC1954, value is the negative log10 of mol/L
  GI50: 4.43
Cell line HCC2185, value is the negative log10 of mol/L
  GI50: 4.57
Cell line HCC3153, value is the negative log10 of mol/L
  GI50: 3.83
Cell line MCF7, value is the negative log10 of mol/L
  GI50: 4.80
Cell line MDAMB134V, value is the negative log10 of mol/L
  GI50: 4.26
Cell line MDAMB157, value is the negative log10 of mol/L
  GI50: 3.78
Cell line MDAMB175V, value is the negative log10 of mol/L
  GI50: 4.46
Cell line MDAMB231, value is the negative log10 of mol/L
  GI50: 3.78
Cell line MDAMB361, value is the negative log10 of mol/L
  GI50: 3.78
Cell line MDAMB436, value is the negative log10 of mol/L
  GI50: 3.78
Cell line MDAMB468, value is the negative log10 of mol/L
  GI50: 4.12
Cell line SKBR3, value is the negative log10 of mol/L
  GI50: 4.60
Cell line SUM52PE, value is the negative log10 of mol/L
  GI50: 4.79
Cell line SUM149PT, value is the negative log10 of mol/L
  GI50: 4.88
Cell line SUM159PT, value is the negative log10 of mol/L
  GI50: 3.78
Cell line SUM185PE, value is the negative log10 of mol/L
  GI50: 4.69
Cell line SUM225CWN, value is the negative log10 of mol/L
  GI50: 4.28
Cell line SUM1315MO, value is the negative log10 of mol/L
  GI50: 5.09
Cell line T47D, value is the negative log10 of mol/L
  GI50: 3.78
Cell line UACC893, value is the negative log10 of mol/L
  GI50: 3.78
Cell line ZR75B, value is the negative log10 of mol/L
  GI50: 3.78
Cell line ZR751, value is the negative log10 of mol/L
  GI50: 4.01

## O=C(Nc1cc(Cl)cc2c1[nH]c1cnccc12)c1cccnc1 [PS1145]
Across the cell line panel
  variability in cell line response: variability in cell line response was minimal
